Where two headings read alike, the source gives them in different places.
Columns and labels:
solubility in water = format: physicochemical; conditions: over the entire pH range of 1 to 14
[1] = cell monolayer permeability studies; format: in vitro ADME; conditions: 1 mM in ethanol and buffer, pH 6 to 6.4
[2] = pharmacokinetics after single oral (gavage) and intravenous dose in 0.9% saline (Example 2); parameters: species or system cynomolgus monkeys; conditions: male, cynomolgus monkey, in vivo; for Vd: Vdss
Protocol: Four male cynomolgus monkeys were used in the study. […] The dosing volume was 10 mL/kg.
By using 0.2 mL of monkey plasma sample, the assay limit of quantitation (LOQ) was 100 ng/mL and the curve range was between 100 and 6400 ng/mL.
AUC0-4 was calculated by AUC0-t+Ct/λ, where AUC0-t was the AUC from time 0 to t, the last quantifiable time point and Ct was the last quantifiable concentration. […] Systemic clearance (CLT) after the iv dose was calculated using the formula of Dose/AUC0-4.

[3] = oral bioavailability of encapsulated microparticulate (100 mg) enteric coated formulation (Example 3); parameters: species or system cynomolgus monkeys; conditions: cynomolgus monkey, in vivo
Protocol: Each 100 mg capsule contained 478.5 mg enteric coated granules. […] The monkeys were housed in Bioresources vivarium with free access to water and food. The four monkeys received the oral formulation described above (1×100 mg multi-particulate capsule). The formulation was administered with 10 mL water. All monkeys were fasted overnight prior to dosing (with free access to water) and were fed 4 hours after dose administration. […] Approximately 3 mL of blood were drawn into Vacutainer® tubes containing sodium heparin as the anticoagulant. Plasma was separated in a refrigerated centrifuge and stored at -70° C. Plasma samples were delivered to the assay site packed on dry ice.

[4] = systemic clearance in dogs; conditions: dog, in vivo, after a single 5 mg/kg dose, read-out: systemic clearance (ClT) in dogs (converted)
[5] = iv, 5 mg/kg, Plasma Concentrations
[6] = po, 15 mg/kg, Plasma Concentrations
[7] = po, 15 mg/kg, Plasma Concentrations, Mean
[8] = cynomolgus, iv, 5 mg/kg, Plasma Concentrations
[9] = cynomolgus, iv, 5 mg/kg, Plasma Concentrations, Mean

Work on CN(C)c1cc(NC(=O)CNC(C)(C)C)c(O)c2c1C[C@H]1C[C@H]3[C@H](N(C)C)C(O)=C(C(N)=O)C(=O)[C@@]3(O)C(O)=C1C2=O [Tigecycline] yielded a solubility (solubility in water) greater than 295 mg/mL, a Papp at 1 mM [1] of 0.04 ×10⁻⁶ cm/s and an AUC ([2]; 15 mg/kg) of 18300 ng·h/mL. It also gave a Cmax ([2]; 15 mg/kg, Cmax) of 15100 ng/mL, a half-life ([2]; 15 mg/kg, t1/2) of 846 min and an AUC(0-t) ([2]; iv, 5 mg/kg) of 18200 ng·h/mL. For the same molecule, the “ClT, Mean” value ([2]; iv, 5 mg/kg) was 0.280 L/kg/h, the “MRTiv, Mean” value ([2]; iv, 5 mg/kg) was 12.8 h and the “Plasma Concentrations” value ([2]; iv, 5 mg/kg, 0 hr) was less than 100 ng/mL. The concentration at 0 hr [2, 5] was less than 100 ng/mL, the concentration at 0.5 hr [2, 5] was 3340 ng/mL and the concentration at 1 hr [2, 5] was 1660 ng/mL. It also gave a concentration at 12 hr [2, 5] of 265 ng/mL, a concentration at 24 hr [2, 5] of 155 ng/mL and a concentration at 32 hr [2, 5] of less than 100 ng/mL. The concentration at 48 hr [2, 5] was less than 100 ng/mL, the Vd ([2]; iv, 5 mg/kg, Mean) was 3.47 L/kg and the half-life ([2]; iv, 5 mg/kg, t1/2) was 684 to 1150 min. The half-life ([2]; iv, 5 mg/kg, t1/2, Mean) was 846 min, the AUC ([2]; po, 15 mg/kg) was 163 ng·h/mL and the “detected in samples up to (time post-dose)” value ([2]; po, 15 mg/kg) was “up to 2 hours”. For the same molecule, the “Plasma Concentrations” value ([2]; po, 15 mg/kg, 0 h) was less than 100 ng/mL, the “Plasma Concentrations” value ([2]; po, 15 mg/kg, 4 hr) was less than 100 ng/mL and the “Plasma Concentrations” value ([2]; po, 15 mg/kg, 6 hr) was less than 100 ng/mL. For the same molecule, the “Plasma Concentrations” value ([2]; po, 15 mg/kg, 8 hr) was less than 100 ng/mL, the “Plasma Concentrations” value ([2]; po, 15 mg/kg, 12 hr) was less than 100 ng/mL and the “Plasma Concentrations” value ([2]; po, 15 mg/kg, 24 h) was less than 100 ng/mL. The “Plasma Concentrations” value ([2]; po, 15 mg/kg, 32 h) was less than 100 ng/mL, the “Plasma Concentrations” value ([2]; po, 15 mg/kg, 48 h) was less than 100 ng/mL and the AUC(0-t) ([2]; po, 15 mg/kg, AUC0-t, Mean) was 163 ng·h/mL. The Cmax ([2]; po, 15 mg/kg, Cmax) was 163 ng/mL, the concentration at 0 h [2, 6] was less than 100 ng/mL and the concentration at 0.5 h [2, 6] was less than 100 ng/mL. For the same molecule, the concentration at 1 hr [2, 6] was 114 ng/mL, the concentration at 2 hr [2, 6] was 131 ng/mL and the concentration at 4 hr [2, 6] was less than 100 ng/mL. The concentration at 6 hr [2, 6] was less than 100 ng/mL, the concentration at 8 hr [2, 6] was less than 100 ng/mL and the concentration at 12 hr [2, 6] was less than 100 ng/mL. For the same molecule, the concentration at 24 h [2, 6] was less than 100 ng/mL, the concentration at 32 h [2, 6] was less than 100 ng/mL and the concentration at 48 h [2, 6] was less than 100 ng/mL. The concentration at 0 h [2, 7] was 0 ng/mL, the concentration at 0.5 h [2, 7] was 55.5 ng/mL and the concentration at 1 h [2, 7] was 131 ng/mL. It also gave a concentration at 2 h [2, 7] of 118 ng/mL, a concentration at 4 h [2, 7] of 0 ng/mL and a concentration at 6 h [2, 7] of 0 ng/mL. For the same molecule, the concentration at 8 h [2, 7] was 0 ng/mL, the concentration at 12 h [2, 7] was 0 ng/mL and the concentration at 24 h [2, 7] was 0 ng/mL. It also gave a concentration at 32 h [2, 7] of 0 ng/mL, a concentration at 48 h [2, 7] of 0 ng/mL and a Tmax ([2]; po, 15 mg/kg, tmax) of 1.8 h. For the same molecule, the Tmax ([2]; po, 15 mg/kg, tmax, Mean) was 1.8 h, the concentration at 2 hr ([2]; monkeys, single oral (gavage) dose of 15 mg/kg, 2 hr, individual animals, read-out: Plasma Concentrations) was 191 ng/mL and the Cmax ([2]; cynomolgus, iv, 5 mg/kg, Cmax, Mean) was 15100 ng/mL. The AUC(0-t) ([2]; cynomolgus, iv, 5 mg/kg, Mean) was 18300 ± 3030 ng·h/mL, the concentration at 2 hr [2, 8] was 1010 ng/mL and the concentration at 4 hr [2, 8] was 588 ng/mL. For the same molecule, the concentration at 6 hr [2, 8] was 431 ng/mL, the concentration at 8 hr [2, 8] was 372 ng/mL and the concentration at 0 hr [2, 9] was 0 ng/mL. It also gave a concentration at 0.083 hr [2, 9] of 15100 ng/mL, a concentration at 0.5 hr [2, 9] of 2250 ng/mL and a concentration at 1 hr [2, 9] of 1400 ng/mL. For the same molecule, the concentration at 2 hr [2, 9] was 1090 ng/mL, the concentration at 4 hr [2, 9] was 697 ng/mL and the concentration at 6 hr [2, 9] was 499 ng/mL. It also gave a concentration at 8 hr [2, 9] of 392 ng/mL, a concentration at 12 hr [2, 9] of 264 ng/mL and a concentration at 24 hr [2, 9] of 162 ng/mL. For the same molecule, the concentration at 32 hr [2, 9] was 31.8 ng/mL, the concentration at 48 hr [2, 9] was 27 ng/mL and the Vd ([2]; cynomolgus, iv, 5 mg/kg, Mean) was 3.47 ± 1.09 L/kg. It also gave a half-life ([2]; cynomolgus, iv, 5 mg/kg, t1/2) of 768 min, a half-life ([2]; cynomolgus, iv, 5 mg/kg, t1/2, Mean) of 846 ± 204 min and a Tmax ([2]; cynomolgus, po, 15 mg/kg) of 1.0 h. The Cmax ([2]; cynomolgus, po, 15 mg/kg, Cmax) was 178 ng/mL, the Cmax ([2]; cynomolgus, po, 15 mg/kg, Cmax, Mean) was 163 ± 27.1 ng/mL and the Tmax ([2]; cynomolgus, po, 15 mg/kg, tmax) was 1 to 2 h. For the same molecule, the Cmax ([2]; cynomolgus, monkeys, single oral (gavage) dose of 15 mg/kg, individual animals, read-out: Cmax) was 191 ng/mL, the concentration at 1 hr ([3]; fasted male cynomolgus monkeys, single oral dose 100 mg encapsulated microparticulate capsule, 1 hr, individual animals, read-out: Plasma Concentrations) was 113 ng/mL and the concentration at 3 hr ([3]; fasted male cynomolgus monkeys, single oral dose 100 mg encapsulated microparticulate capsule, 3 hr, individual animals, read-out: Plasma Concentrations) was 174 ng/mL. The concentration at 4 hr ([3]; fasted male cynomolgus monkeys, single oral dose 100 mg encapsulated microparticulate capsule, 4 hr, individual animals, read-out: Plasma Concentrations) was 113 ng/mL, the “AUC/Dose, Mean” value ([3]; male) was 174 and the “Cmax/Dose, Mean” value ([3]; male) was 14.0. The AUC/Dose ([3]; male, po, 16 mg/kg) was 174, the Cmax/Dose ([3]; male, po, 16 mg/kg) was 14.0 and the AUC ([3]; male, po, 16 mg/kg, AUC0/t or 0-∞) was 2830 ng·h/mL. It also gave a bioavailability ([3]; male, po, 16 mg/kg, Bioavailability) of 4.8%, a Cmax ([3]; male, po, 16 mg/kg) of 225 ng/mL and a bioavailability ([3]; male, po, 16 mg/kg, absolute bioavailability of tigecycline in the blood) of 5%. It also gave a half-life ([3]; male, po, 16 mg/kg, t1/2) of 726 min, a Tmax ([3]; male, po, 16 mg/kg, tmax) of 2.25 h and a Tmax ([3]; male, po, 100 mg) of 3.0 h. For the same molecule, the AUC(0-inf) ([3]; male, po, 100 mg, AUC0-∞, Mean) was 2830 ng·h/mL, the AUC ([3]; male, po, 100 mg, AUC0/24, Mean) was 2130 ng·h/mL and the Cmax ([3]; male, po, 100 mg, Mean) was 225 ng/mL. It also gave a half-life ([3]; male, po, 100 mg, T1/2) of 569 min, a half-life ([3]; male, po, 100 mg, T1/2, Mean) of 726 min and a Tmax ([3]; male, po, 100 mg, Tmax) of 2 h. For the same molecule, the Tmax ([3]; male, po, 100 mg, Tmax, Mean) was 2.25 h and the clearance [4] was roughly 4.33 mL/min/kg.
